The values below come from US20230144211A1, “ANTIFOLATE LINKER-DRUGS AND ANTIBODY-DRUG CONJUGATES” (Byondis B.V., priority 2020, published 2023).

As a reminder, the IC50 is the concentration that gives 50% inhibition.

Molecules are shown by their SMILES.

What all share (assay): In vitro cell viability assay (CellTiter-Glo, 6 days)
What all share (type): cell-based, human
On the technique in general: In ATP-based viability assays light output follows the ATP content of the culture.

For assay [1], the system named is Jurkat NucLight Red cells. The following applies: free antifolate drugs. The procedure: (§1) FaDu, BxPC-3, HeLa, MV4-11, and RAJI cell lines were obtained from Deutsche Sammlung von Mikroorganismen und Zellkulturen (Leipzig, Germany). Jurkat NucLight Red cells were obtained from Essen BioScience Inc. (Ann Arbor, Mich., USA). SK-BR-3 and SK-OV-3 cells were cultured in McCoys 5A medium (Lonza; Walkersville, Md., USA) supplemented with 10% v/w Fetal Bovine Serum (FBS), Heat-inactivated (HI) (Gibco-Life Technologies; Carlsbad, Calif.) and 80 U/mL Pen/Strep (Gibco-Life Technologies), at 37° C. in a humidified incubator under 5% CO2 atmosphere. SW-620 cells were similarly maintained in RPMI 1640 medium (Lonza), containing 10% v/w FBS HI and 80 U/mL Pen/Strep. A-549 cells were similarly maintained in F-12K Nutrient Mixture (1×) (Gibco-Life Technologies) media supplemented with 80 U/mL Pen/Strep and 5% v/w FBS, which was Qualified (Q) (Gibco-Life Technologies). BT-474 and AU-565 cells were similarly maintained in RPMI 1640 medium (Lonza), containing 10% v/w FBS, which was Qualified (Q) (Gibco-Life Technologies), and 80 U/mL Pen/Strep. […] Jurkat NucLight Red cells were similarly maintained in RPMI 1640 medium (Lonza), containing 10% v/w FBS HI, 80 U/mL Pen/Strep and 0.5 μg/mL Puromycin (Gibco-Life Technologies). FaDu cells were cultured in EMEM medium (Lonza) supplemented with 10% v/w FBS HI (Gibco-Life Technologies), 1× GlutaMAX (Gibco-Life Technologies), and 80 U/mL Pen/Strep (Gibco-Life Technologies), at 37° C. in a humidified incubator under 5% CO2 atmosphere.
(§2) After an overnight incubation, 10 serial log 10 dilutions of the free drugs were made in DMSO (Sigma-Aldrich). These free drug dose-response curves were 10-times further diluted in complete growth medium. For the ADCs according to the invention 10 serial log 10 dilutions were made in complete growth medium. 10 μL of a composition comprising a free drug or an ADC according to the invention was added to the assay plate (final DMSO content for free drugs was 1%). […] Cell viability was assessed after 6 days using a luminescent assay kit (CellTiter-Glo™ (CTG), Promega Corporation) according to the manufacturer's instructions. Percentage cell survival was calculated by dividing the measured luminescence for each free drug or ADC according to the concentration with the average mean of untreated cells (1% or 0.1% DMSO control (for free drugs) or 100% complete growth medium (for ADCs)) multiplied by 100.
(§3) Curves were fitted by non-linear regression using the sigmoidal dose-response equation with variable slope (four parameters) using curve-fitting software (GraphPad Prism, version 9.4.0 for Windows, GraphPad, San Diego, Calif. or Electronic Laboratory Notebook (ELN) add-in BioAssay, version 19.1.0.0218, Perkin Elmer, Waltham, Mass.). Relative IC50 values were calculated as the concentration that gives a response halfway between bottom and top of the curve, when using a 4-parameter logistic fit. Data were reported as mean IC50 value of at least one experiment performed in duplicate.

For the next assay, the system named is AU-565 cells. The procedure: as §1
as §2, with “Cell viability was assessed after 6 days using a luminescent assay kit (CellTiter-Glo™ (CTG), Promega Corporation) according to the manufacturer's instructions.” left out
as §3

The test system of another assay is SK-BR-3 cells. The procedure:
as §1
as §2, with “Cell viability was assessed after 6 days using a luminescent assay kit (CellTiter-Glo™ (CTG), Promega Corporation) according to the manufacturer's instructions.” left out
as §3

[2] abbreviates: Homo sapiens, AU565, free antifolate drugs, Table 1c.
Setting [3] is: Homo sapiens, SK-BR-3, free antifolate drugs, Table 1c.
Where [4] appears, read: Homo sapiens, AU565, free antifolate drugs, Table 1b.
Where [5] appears, read: Homo sapiens, SK-BR-3, free antifolate drugs, Table 1b, # no full dose-response curve.
Where [6] appears, read: free antifolate drugs, Table 1c.

For `Nc1ccc(C(=O)NCCC[C@H](NC(=O)c2ccc3c(ccn3Cc3cnc4nc(N)nc(N)c4n3)c2)C(=O)O)c(-c2nn[nH]n2)c1` [AFD-009], the IC50 in assay [1] (Homo sapiens, Jurkat, Table 1c) came to 1.96 nM; in the assay on AU-565 cells (setting [2]), 1.15 nM; in the assay on SK-BR-3 cells (setting [3]), 2.82 nM.

For `Nc1ccc(C(=O)NCCC[C@H](NC(=O)c2ccc3c(c2)CCCN3Cc2cnc3nc(N)nc(N)c3n2)C(=O)O)c(-c2nn[nH]n2)c1` [AFD-007], the half-maximal inhibitory concentration (IC50) in assay [1] (Homo sapiens, Jurkat, Table 1c) amounted to 2.01 nM; with AU-565 cells (setting [2]) it was 0.68 nM; in the assay on SK-BR-3 cells (setting [3]), 1.06 nM.

In the case of `Nc1ccc(C(=O)NCCC[C@H](NC(=O)c2ccc(NCc3cnc4nc(N)nc(N)c4n3)cc2O)C(=O)O)c(-c2nn[nH]n2)c1` [AFD-004], the IC50 in assay [1] (Homo sapiens, Jurkat, Table 1c) worked out at 0.68 nM; with AU-565 cells (setting [2]) it was 0.37 nM; in the assay with SK-BR-3 cells (setting [3]), 0.67 nM.

For `COc1cc(C(=O)N[C@@H](CCCNC(=O)c2ccc(N)cc2-c2nnn[nH]2)C(=O)O)ccc1NCc1cnc2nc(N)nc(N)c2n1` [XT132, (S)-5-(4-Amino-2-(1H-tetrazol-5-yl)benzamido)-2-(4-(((2,4-diaminopteridin-6-yl)methyl)amino)-3-methoxybenzamido)pentanoic acid], the IC50 is 1.19 nM in assay [1] (Homo sapiens, Jurkat, Table 1b); 0.97 nM with AU-565 cells (setting [4]); 2.15 nM in the assay with SK-BR-3 cells (setting [5]).

On to `Nc1ccc(C(=O)NCCC[C@H](NC(=O)c2ccc(NCc3cnc4nc(N)nc(N)c4n3)c(N)c2)C(=O)O)c(-c2nn[nH]n2)c1` [AFD-006], for which the IC50 in assay [1] (Homo sapiens, Jurkat, Table 1c) worked out at 5.98 nM; in the assay on AU-565 cells (setting [2]) it was 2.8 nM; in the assay on SK-BR-3 cells (setting [3]), 5.15 nM.

As for `Nc1ccc(C(=O)NCCC[C@H](NC(=O)c2ccc(NCc3cnc4nc(N)nc(N)c4n3)cc2N)C(=O)O)c(-c2nnn[nH]2)c1` [AFD-010], the IC50 was found to be 2.31 nM in assay [1] (Homo sapiens, Jurkat, Table 1c); 1.17 nM with AU-565 cells (setting [2]); 2.4 nM in the assay on SK-BR-3 cells (setting [3]).

Take `Nc1ccc(C(=O)NCCC[C@H](NC(=O)c2ccc(OCc3cnc4nc(N)nc(N)c4n3)cc2)C(=O)O)c(-c2nn[nH]n2)c1` [AFD-001]: the IC50 in assay [1] (Homo sapiens, Jurkat, Table 1b) worked out at 4.92 nM; in the assay on AU-565 cells (setting [4]), 9.18 nM; in the assay on SK-BR-3 cells (setting [5]), 25 nM.

With `Nc1ccc(C(=O)NCCC[C@H](NC(=O)c2ccc(NCc3cnc4nc(N)nc(N)c4n3)c(O)c2)C(=O)O)c(-c2nn[nH]n2)c1` [AFD-002], the IC50 in assay [1] (Homo sapiens, Jurkat, Table 1b) is 15 nM; with AU-565 cells (setting [4]), 14 nM; with SK-BR-3 cells (setting [5]) it was 20 nM.

For the compound `Nc1ccc(C(=O)NCCC[C@H](NC(=O)c2ccc3c(c2)CCN3Cc2cnc3nc(N)nc(N)c3n2)C(=O)O)c(-c2nn[nH]n2)c1` [AFD-008], the IC50 stood at 0.87 nM in assay [1] (Homo sapiens, Jurkat, Table 1c); 0.76 nM in the assay on AU-565 cells (setting [2]); 1.5 nM in the assay with SK-BR-3 cells (setting [3]).

On to `Nc1ccc(C(=O)NCCC[C@H](NC(=O)c2ccc(SCc3cnc4nc(N)nc(N)c4n3)cc2)C(=O)O)c(-c2nn[nH]n2)c1` [AFD-005], for which the IC50 was 5.6 nM in assay [1] (Homo sapiens, Jurkat, Table 1c); ~8 nM in the assay with AU-565 cells (setting [2]); ~22 nM with SK-BR-3 cells (setting [3]).

As for `C#CCN(Cc1cnc2nc(N)nc(N)c2n1)c1ccc(C(=O)N[C@@H](CCCNC(=O)c2ccc(N)cc2-c2nn[nH]n2)C(=O)O)cc1` [AFD-003], the IC50 in assay [1] (Homo sapiens, Jurkat, Table 1b) amounted to 1.4 nM; in the assay with AU-565 cells (setting [4]), 0.98 nM; in the assay with SK-BR-3 cells (setting [5]) it was 2.09 nM.

For `Nc1ccc(C(=O)NCCC[C@H](NC(=O)c2ccc(NCc3ccc4nc(N)nc(N)c4c3Cl)s2)C(=O)O)c(-c2nnn[nH]2)c1` [XT126, (S)-5-(4-Amino-2-(1H-tetrazol-5-yl)benzamido)-2-(5-(((2,4-diamino-5-chloroquinazolin-6-yl)methyl)amino)thiophene-2-carboxamido)pentanoic acid], the IC50 in assay [1] (Homo sapiens, Jurkat, Table 1b) was 5.01 nM; in the assay on AU-565 cells (setting [4]) it was 2.37 nM; in the assay on SK-BR-3 cells (setting [5]), 2.91 nM.

For `CN(Cc1cnc2nc(N)nc(N)c2n1)c1ccc(C(=O)N[C@@H](CCCNC(=O)c2ccc(N)cc2-c2nn[nH]n2)C(=O)O)s1` [XC9, (S)-5-(4-Amino-2-(2H-tetrazol-5-yl)benzamido)-2-(5-(((2,4-diaminopteridin-6-yl)methyl)(methyl)amino)thiophene-2-carboxamido)pentanoic acid], the half-inhibitory concentration (IC50) in assay [1] (Table 1c) came out at 2.41 nM; in the assay on AU-565 cells (setting [6]), 1.95 nM; in the assay with SK-BR-3 cells (setting [6]) it was 3.77 nM.

`Nc1ccc(C(=O)NCCC[C@H](NC(=O)c2ccc(CCc3cnc4nc(N)nc(N)c4n3)cc2)C(=O)O)c(-c2nnn[nH]2)c1` [XT128, (S)-5-(4-Amino-2-(1H-tetrazol-5-yl)benzamido)-2-(4-(2-(2,4-diaminopteridin-6-yl)ethyl)benzamido)pentanoic acid]: the IC50 came to 0.61 nM in assay [1] (Homo sapiens, Jurkat, Table 1b); 0.71 nM in assay [1] (Homo sapiens, Jurkat, Table 1c); 0.34 nM in the assay with AU-565 cells (setting [4]); 0.36 nM in the assay on AU-565 cells (setting [2]); 0.57 nM in the assay with SK-BR-3 cells (setting [5]); 0.78 nM in the assay with SK-BR-3 cells (setting [3]).

For the compound `CN(Cc1cnc2nc(N)nc(N)c2n1)c1ccc(C(=O)N[C@@H](CCCNC(=O)c2ccc(N)cc2-c2nn[nH]n2)C(=O)O)s1` [XC5, (S)-5-(4-amino-2-(2H-tetrazol-5-yl)benzamido)-2-(5-(((2,4-diaminopteridin-6-yl)methyl)(methyl)amino)thiophene-2-carboxamido)pentanoic acid], the figures for the IC50 (in assay [1] (Table 1c); in the assay on AU-565 cells (setting [6]); in the assay with SK-BR-3 cells (setting [6])) were ~30 nM, ~28 nM and ~100 nM, respectively.
